Measurements from patent US8158830B1, “Integrated process for the preparation of tetraaminobenzene” (E. I. du Pont de Nemours and Company, priority 2007, dated 2012).

Test: solubility of TAB.4HCl in water
Type: physicochemical
Conditions: water at 25° C.
Procedure: The reaction mixture containing the precipitated TAB salt is then cooled to about 5° C. to about 15° C. and stirred, then filtered. The TAB salt is then washed 44. It may be washed with deaerated aqueous acid, such as HCl (33%), and then optionally with deaerated ethanol or methanol to produce a wet cake material; the optional ethanol or methanol wash can then be recycled 48, 47, and a purge is drawn to prevent accumulation. Using an agitated filter unit during the wash procedures can allow for a reduction of the wash volumes. Under such circumstances, using small amounts of cold water (e.g. about 5° C.) instead of the aqueous acid would also be effective as the TAB salt would have lower solubility in the cold water than it would have in water at about room temperature (e.g. 25° C.). For example, the solubility of TAB.4HCl in water at 25° C. is about 15 wt %.

For `Nc1cc(N)c(N)cc1N` [TAB.4HCl, 1,2,4,5-tetraminobenzene], the solubility in water was “about 15 wt %”.
